Paper PMC12420824, “Discovery of a selective alpha-kinase 1 inhibitor for the rare genetic disease ROSAH syndrome” (Nature Communications, 2025)

Columns and labels:
Experiment in all cases: HotSpot kinase assay
Conditions in all cases: read-out: % Enzyme Activity (relative to DMSO control), 10 uM
P38a/MAPK14 = P38a/MAPK14 (Homo sapiens, UniProt Q16539)
Excerpt: (§1) Additionally, a 10-dose dilution series of staurosporine and other enzyme-appropriate compounds were included as positive control inhibitors.

MARK4 = MARK4 (Homo sapiens, UniProt Q96L34)
Excerpt: as §1

BMPR2 = BMPR2 (Homo sapiens, UniProt Q13873)
AKT2 = AKT2 (Homo sapiens, UniProt P31751)
Excerpt: as §1

PIM1 = PIM1 (Homo sapiens, UniProt P11309)
Chain of PIM1 (P11309 whole entry): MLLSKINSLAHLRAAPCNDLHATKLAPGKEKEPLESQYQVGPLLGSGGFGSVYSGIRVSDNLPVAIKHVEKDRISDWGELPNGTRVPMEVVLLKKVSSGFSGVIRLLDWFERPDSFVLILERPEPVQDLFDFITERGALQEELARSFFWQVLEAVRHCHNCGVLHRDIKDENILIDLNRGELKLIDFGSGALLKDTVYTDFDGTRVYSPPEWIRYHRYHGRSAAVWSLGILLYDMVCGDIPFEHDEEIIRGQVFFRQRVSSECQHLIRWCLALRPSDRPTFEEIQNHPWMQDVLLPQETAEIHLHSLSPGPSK
Excerpt: as §1

CDK6/cyclin D1 = CDK6/cyclin D1 (Homo sapiens, UniProt Q00534)
Excerpt: as §1

DMPK = DMPK (Homo sapiens, UniProt Q09013)
Excerpt: as §1

MYO3A = MYO3A (Homo sapiens, UniProt Q8NEV4)
Excerpt: as §1

MLK1/MAP3K9 = MLK1/MAP3K9 (Homo sapiens, UniProt P80192)
Excerpt: as §1

COT1/MAP3K8 = COT1/MAP3K8 (Homo sapiens, UniProt P41279)
Excerpt: as §1

ERN2/IRE2 = ERN2/IRE2 (Homo sapiens, UniProt Q76MJ5)
Excerpt: as §1

CLK1 = CLK1 (Homo sapiens, UniProt P49759)
Excerpt: as §1

MARK1 = MARK1 (Homo sapiens, UniProt Q9P0L2)
Chain of MARK1 (Q9P0L2 whole entry): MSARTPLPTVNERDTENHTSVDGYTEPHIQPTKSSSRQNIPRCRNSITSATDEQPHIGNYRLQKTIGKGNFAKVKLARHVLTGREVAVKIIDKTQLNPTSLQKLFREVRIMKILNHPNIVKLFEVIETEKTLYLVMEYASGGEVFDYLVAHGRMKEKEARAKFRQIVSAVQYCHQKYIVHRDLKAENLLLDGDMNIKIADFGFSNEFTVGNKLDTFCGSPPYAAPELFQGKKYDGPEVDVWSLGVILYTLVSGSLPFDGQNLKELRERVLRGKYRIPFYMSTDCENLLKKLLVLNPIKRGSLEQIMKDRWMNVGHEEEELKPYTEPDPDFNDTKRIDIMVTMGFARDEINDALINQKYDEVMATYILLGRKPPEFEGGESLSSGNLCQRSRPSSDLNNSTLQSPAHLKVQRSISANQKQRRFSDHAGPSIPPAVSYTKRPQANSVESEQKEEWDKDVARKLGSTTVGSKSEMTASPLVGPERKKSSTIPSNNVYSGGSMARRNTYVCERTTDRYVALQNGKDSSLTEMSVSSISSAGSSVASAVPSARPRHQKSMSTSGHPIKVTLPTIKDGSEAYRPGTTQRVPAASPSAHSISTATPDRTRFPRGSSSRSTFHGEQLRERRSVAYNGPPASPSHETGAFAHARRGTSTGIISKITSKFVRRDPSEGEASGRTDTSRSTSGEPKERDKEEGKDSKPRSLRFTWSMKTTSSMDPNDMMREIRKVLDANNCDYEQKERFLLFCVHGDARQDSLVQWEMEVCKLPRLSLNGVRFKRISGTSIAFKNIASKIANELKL

TNK1 = TNK1 (Homo sapiens, UniProt Q13470)
Chain of TNK1 (Q13470 whole entry): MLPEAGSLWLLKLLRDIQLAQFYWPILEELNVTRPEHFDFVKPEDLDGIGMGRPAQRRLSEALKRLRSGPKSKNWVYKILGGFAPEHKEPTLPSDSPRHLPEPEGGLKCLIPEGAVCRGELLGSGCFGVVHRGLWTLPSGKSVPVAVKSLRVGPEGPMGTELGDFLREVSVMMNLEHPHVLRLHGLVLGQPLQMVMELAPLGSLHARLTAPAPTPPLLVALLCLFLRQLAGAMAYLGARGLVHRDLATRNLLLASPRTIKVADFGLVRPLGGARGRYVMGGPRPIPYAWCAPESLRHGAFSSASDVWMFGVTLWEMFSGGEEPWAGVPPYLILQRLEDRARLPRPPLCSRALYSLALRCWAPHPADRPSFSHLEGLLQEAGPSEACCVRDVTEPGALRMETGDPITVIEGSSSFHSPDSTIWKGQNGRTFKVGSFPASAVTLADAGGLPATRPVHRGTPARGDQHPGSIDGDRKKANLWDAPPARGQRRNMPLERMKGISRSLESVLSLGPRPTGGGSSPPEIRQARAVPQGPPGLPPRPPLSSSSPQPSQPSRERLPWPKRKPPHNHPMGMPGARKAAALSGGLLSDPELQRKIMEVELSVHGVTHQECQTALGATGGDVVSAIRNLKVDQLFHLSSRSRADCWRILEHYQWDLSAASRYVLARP
Excerpt: as §1

MYLK3 = MYLK3 (Homo sapiens, UniProt Q32MK0)
Chain of MYLK3 (Q32MK0 whole entry): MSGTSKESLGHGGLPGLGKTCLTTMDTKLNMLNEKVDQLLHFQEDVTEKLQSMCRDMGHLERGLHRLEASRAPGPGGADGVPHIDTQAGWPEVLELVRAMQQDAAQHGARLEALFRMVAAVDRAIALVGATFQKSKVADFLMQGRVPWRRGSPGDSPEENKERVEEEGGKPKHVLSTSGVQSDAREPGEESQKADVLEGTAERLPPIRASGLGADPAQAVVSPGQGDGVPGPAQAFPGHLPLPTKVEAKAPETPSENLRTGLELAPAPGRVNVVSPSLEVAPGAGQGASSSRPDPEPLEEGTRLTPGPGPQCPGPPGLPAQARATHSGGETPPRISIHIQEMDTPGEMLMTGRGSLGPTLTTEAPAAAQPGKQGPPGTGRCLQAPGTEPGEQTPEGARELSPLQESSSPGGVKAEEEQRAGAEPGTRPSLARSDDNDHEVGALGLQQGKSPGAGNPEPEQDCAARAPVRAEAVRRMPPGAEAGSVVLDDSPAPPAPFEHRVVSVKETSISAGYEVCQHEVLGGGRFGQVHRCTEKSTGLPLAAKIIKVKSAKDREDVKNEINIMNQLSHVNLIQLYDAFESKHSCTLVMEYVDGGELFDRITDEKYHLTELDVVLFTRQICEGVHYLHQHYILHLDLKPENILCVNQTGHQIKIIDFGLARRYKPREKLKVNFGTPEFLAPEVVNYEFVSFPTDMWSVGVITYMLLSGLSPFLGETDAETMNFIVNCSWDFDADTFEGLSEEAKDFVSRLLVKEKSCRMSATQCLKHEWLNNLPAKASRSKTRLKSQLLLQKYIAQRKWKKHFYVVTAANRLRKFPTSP

PAK5 = PAK5 (Homo sapiens, UniProt Q9P286)
Chain of PAK5 (Q9P286 whole entry): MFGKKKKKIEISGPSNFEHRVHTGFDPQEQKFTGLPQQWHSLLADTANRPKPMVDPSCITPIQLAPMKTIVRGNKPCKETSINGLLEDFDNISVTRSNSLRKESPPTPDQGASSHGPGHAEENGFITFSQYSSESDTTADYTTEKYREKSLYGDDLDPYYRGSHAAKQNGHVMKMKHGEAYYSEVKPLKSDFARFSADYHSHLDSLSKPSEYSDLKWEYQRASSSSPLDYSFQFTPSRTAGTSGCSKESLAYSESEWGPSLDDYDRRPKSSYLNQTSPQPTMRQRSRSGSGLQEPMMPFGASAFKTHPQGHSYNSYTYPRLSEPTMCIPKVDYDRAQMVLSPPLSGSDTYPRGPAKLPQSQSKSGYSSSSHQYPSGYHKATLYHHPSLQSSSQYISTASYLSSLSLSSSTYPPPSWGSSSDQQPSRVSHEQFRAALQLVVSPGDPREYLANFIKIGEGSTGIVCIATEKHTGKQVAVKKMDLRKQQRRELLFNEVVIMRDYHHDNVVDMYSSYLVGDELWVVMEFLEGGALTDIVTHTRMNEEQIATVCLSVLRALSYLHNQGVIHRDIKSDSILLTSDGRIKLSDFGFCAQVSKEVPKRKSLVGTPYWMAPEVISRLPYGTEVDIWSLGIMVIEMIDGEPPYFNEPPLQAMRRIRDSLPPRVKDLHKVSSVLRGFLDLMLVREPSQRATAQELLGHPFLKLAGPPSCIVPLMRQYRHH
Excerpt: as §1

CDK7/cyclin H = CDK7/cyclin H (Homo sapiens, UniProt P50613)
Excerpt: as §1

RAF1 = RAF1 (Homo sapiens, UniProt P04049)
CAMKK2 = CAMKK2 (Homo sapiens, UniProt Q96RR4)
Excerpt: as §1

SRPK2 = SRPK2 (Homo sapiens, UniProt P78362)
Excerpt: as §1

LKB1 = LKB1 (Homo sapiens, UniProt Q15831)
Excerpt: as §1

ERK7/MAPK15 = ERK7/MAPK15 (Homo sapiens, UniProt Q8TD08)
Excerpt: as §1

CLK4 = CLK4 (Homo sapiens, UniProt Q9HAZ1)
Excerpt: as §1

EPHA1 = EPHA1 (Homo sapiens, UniProt P21709)
NEK9 = NEK9 (Homo sapiens, UniProt Q8TD19)
LRRK2 = LRRK2 (Homo sapiens, UniProt Q5S007)
Excerpt: as §1

PHKg2 = PHKg2 (Homo sapiens, UniProt P15735)
Excerpt: as §1

LCK = LCK (Homo sapiens, UniProt P06239)
Excerpt: as §1

RSK1 = RSK1 (Homo sapiens, UniProt Q15418)
FER = FER (Homo sapiens, UniProt P16591)
GRK6 = GRK6 (Homo sapiens, UniProt P43250)
Excerpt: as §1

NEK4 = NEK4 (Homo sapiens, UniProt P51957)
MEK1 = MEK1 (Homo sapiens, UniProt Q02750)
Excerpt: as §1

HIPK2 = HIPK2 (Homo sapiens, UniProt Q9H2X6)
Chain of HIPK2 (Q9H2X6 whole entry): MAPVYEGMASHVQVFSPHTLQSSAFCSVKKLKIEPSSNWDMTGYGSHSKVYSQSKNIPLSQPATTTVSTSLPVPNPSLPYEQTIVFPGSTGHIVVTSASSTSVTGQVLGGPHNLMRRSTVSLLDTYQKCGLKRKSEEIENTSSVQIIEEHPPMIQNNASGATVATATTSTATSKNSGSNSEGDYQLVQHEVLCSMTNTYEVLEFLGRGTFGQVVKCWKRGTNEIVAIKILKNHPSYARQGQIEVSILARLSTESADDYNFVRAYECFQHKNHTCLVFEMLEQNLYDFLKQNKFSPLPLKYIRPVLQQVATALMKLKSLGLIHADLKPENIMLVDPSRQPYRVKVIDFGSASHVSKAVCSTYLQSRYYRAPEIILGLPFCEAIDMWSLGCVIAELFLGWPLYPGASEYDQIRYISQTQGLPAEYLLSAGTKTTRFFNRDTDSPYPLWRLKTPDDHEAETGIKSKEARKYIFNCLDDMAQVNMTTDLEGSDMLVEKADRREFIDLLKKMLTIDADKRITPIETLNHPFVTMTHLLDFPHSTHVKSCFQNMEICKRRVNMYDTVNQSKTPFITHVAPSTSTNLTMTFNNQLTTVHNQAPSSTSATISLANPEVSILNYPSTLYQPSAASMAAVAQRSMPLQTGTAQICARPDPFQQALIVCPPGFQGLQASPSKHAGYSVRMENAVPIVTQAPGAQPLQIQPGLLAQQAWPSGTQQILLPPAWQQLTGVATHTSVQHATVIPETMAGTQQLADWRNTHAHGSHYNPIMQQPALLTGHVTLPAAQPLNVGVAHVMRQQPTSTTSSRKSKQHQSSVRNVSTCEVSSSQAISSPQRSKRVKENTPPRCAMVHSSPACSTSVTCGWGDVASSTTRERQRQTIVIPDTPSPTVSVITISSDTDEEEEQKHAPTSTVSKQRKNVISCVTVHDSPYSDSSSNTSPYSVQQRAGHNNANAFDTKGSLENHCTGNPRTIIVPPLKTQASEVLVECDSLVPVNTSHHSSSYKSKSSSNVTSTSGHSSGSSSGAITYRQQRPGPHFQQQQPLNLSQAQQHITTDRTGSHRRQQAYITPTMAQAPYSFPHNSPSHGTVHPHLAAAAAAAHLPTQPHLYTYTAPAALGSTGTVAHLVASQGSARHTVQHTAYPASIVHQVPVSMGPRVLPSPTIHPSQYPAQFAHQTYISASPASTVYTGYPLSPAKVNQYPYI
Excerpt: as §1

PKAcb = PKAcb (Homo sapiens, UniProt P22694)
Excerpt: as §1

MLCK/MYLK = MLCK/MYLK (Homo sapiens, UniProt Q15746)
Excerpt: as §1

RIPK2 = RIPK2 (Homo sapiens, UniProt O43353)
LYN = LYN (Homo sapiens, UniProt P07948)
Excerpt: as §1

DYRK1B = DYRK1B (Homo sapiens, UniProt Q9Y463)
Excerpt: as §1

FAK/PTK2 = FAK/PTK2 (Homo sapiens, UniProt Q05397)
Excerpt: as §1

Chain of P38a/MAPK14 (Q16539 whole entry): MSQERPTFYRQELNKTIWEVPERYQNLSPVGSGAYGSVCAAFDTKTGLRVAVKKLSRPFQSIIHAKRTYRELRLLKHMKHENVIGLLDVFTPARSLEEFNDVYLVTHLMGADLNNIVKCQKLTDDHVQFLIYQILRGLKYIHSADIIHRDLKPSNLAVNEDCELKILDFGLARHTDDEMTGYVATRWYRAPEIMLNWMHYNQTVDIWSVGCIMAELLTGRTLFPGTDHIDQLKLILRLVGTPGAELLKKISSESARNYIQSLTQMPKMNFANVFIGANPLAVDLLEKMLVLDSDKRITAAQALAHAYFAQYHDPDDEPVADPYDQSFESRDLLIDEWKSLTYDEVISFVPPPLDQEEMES

For `C#C[C@@](C)(c1ccc(Cl)cc1)c1csc(NC(=O)c2c(F)cc(N3CCNCC3)cc2F)n1` (stereo in doubt) [DF-003], which remaining activity at 10 µM (P38a/MAPK14) is on record?
Its remaining activity at 10 µM is 74.6%.

And the remaining activity at 10 µM (MARK4)?
The remaining activity at 10 µM was 110%.

What about the remaining activity at 10 µM (BMPR2) of the same molecule?
The remaining activity at 10 µM was 113%.

And the remaining activity at 10 µM (AKT2)?
Its remaining activity at 10 µM is 93.6%.

What about the remaining activity at 10 µM (PIM1) of the same molecule?
Its remaining activity at 10 µM is 74%.

And the remaining activity at 10 µM (CDK6/cyclin D1)?
Its remaining activity at 10 µM is 99.8%.

And the remaining activity at 10 µM (DMPK)?
Its remaining activity at 10 µM is 94.6%.

And the remaining activity at 10 µM (MYO3A)?
Its remaining activity at 10 µM is 75.5%.

What about the remaining activity at 10 µM (MLK1/MAP3K9) of the same molecule?
The remaining activity at 10 µM was 79.7%.

What about the remaining activity at 10 µM (COT1/MAP3K8) of the same molecule?
The remaining activity at 10 µM was 20.7%.

And the remaining activity at 10 µM (ERN2/IRE2)?
The remaining activity at 10 µM was 62.1%.

And the remaining activity at 10 µM (CLK1)?
The remaining activity at 10 µM was 91.2%.

What about the remaining activity at 10 µM (MARK1) of the same molecule?
Its remaining activity at 10 µM is 104%.

What about the remaining activity at 10 µM (TNK1) of the same molecule?
Its remaining activity at 10 µM is 100%.

What about the remaining activity at 10 µM (MYLK3) of the same molecule?
The remaining activity at 10 µM was 87.3%.

And the remaining activity at 10 µM (PAK5)?
The remaining activity at 10 µM was 104%.

And the remaining activity at 10 µM (CDK7/cyclin H)?
Its remaining activity at 10 µM is 102%.

And the remaining activity at 10 µM (RAF1)?
The remaining activity at 10 µM was 94.2%.

What about the remaining activity at 10 µM (CAMKK2) of the same molecule?
Its remaining activity at 10 µM is 98.9%.

What about the remaining activity at 10 µM (SRPK2) of the same molecule?
The remaining activity at 10 µM was 126%.

What about the remaining activity at 10 µM (LKB1) of the same molecule?
Its remaining activity at 10 µM is 86.5%.

And the remaining activity at 10 µM (ERK7/MAPK15)?
Its remaining activity at 10 µM is 83.5%.

What about the remaining activity at 10 µM (CLK4) of the same molecule?
The remaining activity at 10 µM was 128%.

What about the remaining activity at 10 µM (EPHA1) of the same molecule?
The remaining activity at 10 µM was 119%.

What about the remaining activity at 10 µM (NEK9) of the same molecule?
Its remaining activity at 10 µM is 100%.

And the remaining activity at 10 µM (LRRK2)?
Its remaining activity at 10 µM is 99.2%.

And the remaining activity at 10 µM (PHKg2)?
Its remaining activity at 10 µM is 74.2%.

What about the remaining activity at 10 µM (LCK) of the same molecule?
The remaining activity at 10 µM was 121%.

And the remaining activity at 10 µM (RSK1)?
Its remaining activity at 10 µM is 69.2%.

What about the remaining activity at 10 µM (FER) of the same molecule?
The remaining activity at 10 µM was 113%.

And the remaining activity at 10 µM (GRK6)?
Its remaining activity at 10 µM is 117%.

And the remaining activity at 10 µM (NEK4)?
The remaining activity at 10 µM was 75.9%.

What about the remaining activity at 10 µM (MEK1) of the same molecule?
Its remaining activity at 10 µM is 102%.

And the remaining activity at 10 µM (HIPK2)?
Its remaining activity at 10 µM is 101%.

And the remaining activity at 10 µM (PKAcb)?
The remaining activity at 10 µM was 91.6%.

What about the remaining activity at 10 µM (MLCK/MYLK) of the same molecule?
The remaining activity at 10 µM was 68.4%.

What about the remaining activity at 10 µM (RIPK2) of the same molecule?
The remaining activity at 10 µM was 125%.

And the remaining activity at 10 µM (LYN)?
The remaining activity at 10 µM was 137%.

And the remaining activity at 10 µM (DYRK1B)?
Its remaining activity at 10 µM is 88.5%.

And the remaining activity at 10 µM (FAK/PTK2)?
The remaining activity at 10 µM was 128%.
